Data set [1] has as its target broad range of enzymes, transporters, and receptors, including cardiac ion channels. On the set-up: method as in protocol Section 1.4.1.2. Particulars: ref protocol Section 1.4.1.2; read-out: IC50 or EC50 for in vitro off-target interactions; cited from earlier work.
On the set-up of data set [2]: method as in Study AI468041. The conditions noted are these: BMS-955176 80 mg SDD suspension with combined oral contraceptive; ref Study AI468041; cited from earlier work.
Data set [3] deals with CD4+ T-cell count. Briefly: Change from baseline in CD4+ T-cell count. In kind it is in vivo, HIV-1-infected adults. Particulars: Week 24. The text has this:
The primary endpoint was determination of the proportion of participants with plasma HIV-1 RNA <40 copies/mL at Week 24 after treatment with GSK3532795 or efavirenz (EFV). Secondary endpoints included mean changes from baseline in CD4+ T-cell count and mean changes in the percentage of CD4+ T-cell count over time. Secondary safety endpoints included frequency of adverse events (AEs), serious AEs (SAEs), and AEs leading to discontinuation through Week 24. Further secondary endpoints included emergence of drug resistance. Exploratory endpoints included assessment of the impact of Gag polymorphisms on the efficacy of GSK3532795. […] In addition, though Gag A364 is essentially invariant across genotypes, it was included in the primary endpoint analysis since emergent resistance to GSK3532795 (both in vitro and in Phase IIa studies) mapped, in part, to the A364V change. Thus, our analysis at the Week 24 primary endpoint was limited to these four positions. Pharmacokinetic (PK) analyses were performed to evaluate treatment exposure and assess the dose proportionality of GSK3532795 when co-administered with tenofovir disoproxil fumarate (TDF)/emtricitabine (FTC).

On the set-up of data set [4]: method as in protocol Section 1.4.1.2. Particulars: ref protocol Section 1.4.1.2; cited from earlier work.
Data set [5] deals with cytochrome P450 (CYP)3A4. More on the design: method as in protocol Section 1.4.1.2. Particulars: ref protocol Section 1.4.1.2; cited from earlier work.
Data set [6] relates to HIV-1 with A364V or V362I plus secondary changes. On the set-up: method as in protocol Section 1.4.1.2. The conditions noted are these: ref protocol Section 1.4.1.2, cited from earlier work.
The conditions of data set [7]: ref protocol Section 1.4.1.2, cited from earlier work.

Turning to `C=C(C)[C@@H]1CC[C@]2(NCCN3CCS(=O)(=O)CC3)CC[C@]3(C)[C@H](CC[C@@H]4[C@@]5(C)CC=C(c6ccc(C(=O)O)cc6)C(C)(C)[C@@H]5CC[C@]43C)[C@@H]12` [GSK3532795], the IC50 in data set [1] was > 5000 nM. For the same compound, the “Effect on exposures to ethinyl estradiol (EE) and norelgestromin (NGMN)” value in data set [2] was “reduced”. For the same compound, the results for the “Mean change in CD4+ T-cell count (SD)” value in data set [3] (60 mg), in data set [3] (120 mg) and in data set [3] (180 mg) were 94.3 (SD 175.00) cells/μL, 79.7 (SD 199.46) cells/μL and 92.5 (SD 144.04) cells/μL, respectively. Moreover, in data set [4], the Route of elimination entry is “eliminated principally via metabolism followed by excretion in bile with little renal excretion”. Also, the Tissue distribution entry in data set [4] is “distributed preferentially into the duodenum, liver, and lymph nodes with little penetration into the brain”. In addition, in data set [5], the “Metabolism in human in vitro systems” value is listed as “primarily mediated via cytochrome P450 (CYP)3A4”. Moreover, in data set [6] (V362I plus secondary change-containing viruses, read-out: EC50, median), the EC50 is 25 nM. Moreover, the Loss of susceptibility in data set [6] (virus with the A364V change) is > 100 fold. For the same compound, the Developmental toxicity classification result in data set [7] (mice, no maternal toxicity at any dose) is “selective developmental toxicant”. Moreover, the “Developmental NOAEL” value in data set [7] (mouse EFD) is 45 mg/kg/day. In addition, the Cumulative postimplantation losses in data set [7] (printed dose 100 mg/kg/day, […] in control litters) is 11.5%. In addition, the “Reductions in fetal body weight relative to control values” in data set [7] is recorded as 5%.

(Values after article PMC6198970, “Safety, efficacy, and dose response of the maturation inhibitor GSK3532795 (formerly known as BMS-955176) plus tenofovir/emtricitabine once daily in treatment-naive HIV-1-infected adults: Week 24 primary analysis from a randomized Phase IIb trial” (PLoS ONE, 2018).)
